Results: the supplement of paper PMC4862054

Assays:
Assay in all cases: normalised response (% of control), CellTox Green; higher = less cell death (100 = DMSO, 0 = benzethonium chloride kill control)
Conditions in all cases: incubation time: 72 h
BT-474 = system: BT-474
Outline: (§1)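 Values are normalised signals, each belonging to one concentration of the series. Breast cancer cells (20 µl suspension) were seeded into 384-well plates with compound at 5 concentrations in 10-fold steps over a compound-specific 10,000-fold range and incubated 72 h. Readouts were CellTox Green fluorescence (485/520 nm), then CellTiter-Glo luminescence after 10 min at room temperature, with each plate set to 0.1 % DMSO as 100 and a positive kill control as 0.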

BT-549 = system: BT-549
Outline: as §1

CAL-120 = system: CAL-120
Outline: as §1

CAL-148 = system: CAL-148
Outline: as §1

CAL-51 = system: CAL-51
Outline: as §1

CAL-85-1 = system: CAL-85-1
Outline: as §1

DU-4475 = system: DU-4475
Outline: as §1

HCC1143 = system: HCC1143
Outline: as §1

HCC1599 = system: HCC1599
Outline: as §1

HCC1937 = system: HCC1937
Outline: as §1

HDQ-P1 = system: HDQ-P1
Outline: as §1

Hs578T = system: Hs578T
Outline: as §1

MCF-10A = system: MCF-10A
Outline: as §1

MDA-MB-231 = system: MDA-MB-231
Outline: as §1

MDA-MB-436 = system: MDA-MB-436
Outline: as §1

MDA-MB-453 = system: MDA-MB-453
Outline: as §1

MDA-MB-468 = system: MDA-MB-468
Outline: as §1

MFM-223 = system: MFM-223
Outline: as §1

SMILES	normalised response (BT-474) [%]	normalised response (BT-549) [%]	normalised response (CAL-120) [%]	normalised response (CAL-148) [%]	normalised response (CAL-51) [%]	normalised response (CAL-85-1) [%]	normalised response (DU-4475) [%]	normalised response (HCC1143) [%]	normalised response (HCC1599) [%]	normalised response (HCC1937) [%]	normalised response (HDQ-P1) [%]	normalised response (Hs578T) [%]	normalised response (MCF-10A) [%]	normalised response (MDA-MB-231) [%]	normalised response (MDA-MB-436) [%]	normalised response (MDA-MB-453) [%]	normalised response (MDA-MB-468) [%]	normalised response (MFM-223) [%]
Cc1c(CN2CCN(C(=O)[C@H](C)O)CC2)sc2c(N3CCOCC3)nc(-c3cnc(N)nc3)nc12 [GDC-0980] (1000 nM)	85.6	108	103	68.3	90.8	97.7	98.7	85	99.9	107	103	107	100	98.8	102	104	117	76.5
O=C1c2c(O)ccc(O)c2C(=O)c2c(NCCNCCO)ccc(NCCNCCO)c21 [Mitoxantrone] (1000 nM)	95.7	108	107	52.5	60	104	94.2	119	112	117	98.8	112	112	119	78	112	217	88
COc1ccc(-c2cc3c(C)nc(N)nc3n([C@H]3CC[C@H](OCCO)CC3)c2=O)cn1 (10000 nM)	-9.27	0.06	75.8	-9.66	17.6	52.1	67.2	91.1	92.1	41.4	-2.73	28.7	72.4	4.33	100	61.1	59.9	52.8
CNC(=O)c1cc(Oc2ccc(NC(=O)Nc3ccc(Cl)c(C(F)(F)F)c3)cc2)ccn1 [Sorafenib] (100 nM)	96.8	114	99.5	73	87	107	99.9	83.6	93.7	92	67.2	–	99.8	101	105	95.1	118	101
C[C@]12C=CC(=O)C=C1CC[C@@H]1[C@@H]2[C@@H](O)C[C@@]2(C)[C@H]1CC[C@]2(O)C(=O)CO [Prednisolone] (1000 nM)	99.6	116	98.7	104	113	98.9	102	112	100	122	–	104	101	142	54.9	–	156	95.8
Cc1ccc(Nc2nccc(N(C)c3ccc4c(C)n(C)nc4c3)n2)cc1S(N)(=O)=O [Pazopanib] (10000 nM)	99.5	119	94	100	76.9	78.9	104	55.8	100	85.7	111	77.2	94.8	99.7	96.9	102	162	96.1
CCC/C=C/C=C/C(=O)O[C@H]1/C(=C/C(=O)OC)C[C@H]2C[C@H]([C@@H](C)O)OC(=O)C[C@H](O)C[C@@H]3C[C@H](OC(C)=O)C(C)(C)[C@](O)(C[C@@H]4C/C(=C/C(=O)OC)C[C@H](/C=C/C(C)(C)[C@]1(O)O2)O4)O3 [Bryostatin 1] (10 nM)	106	139	102	108	92	91.3	106	116	115	83.2	–	109	109	117	74.1	99.9	116	88
CNC(=O)c1cc(Oc2ccc(NC(=O)Nc3ccc(Cl)c(C(F)(F)F)c3)cc2)ccn1 [Sorafenib] (1000 nM)	100	111	101	74.5	115	89.9	97.7	101	97.5	99.2	103	118	89	100	87.5	102	70.1	92.8
Nc1ccccc1NC(=O)c1ccc(CNc2nccc(-c3cccnc3)n2)cc1 [Mocetinostat] (10000 nM)	34.8	34.1	17.4	35.8	7.12	-38.3	72.3	63.6	73.8	69.9	-1.8	48.6	84	-24.5	-9.9	92.3	-170	60.3
O=C(CCBr)N1CCN(C(=O)CCBr)CC1 [Pipobroman] (1000 nM)	100	98.2	98.9	–	106	106	101	–	93.6	93.2	100	91.2	103	96.7	102	90.5	84.6	94
C[C@]12O[C@H](C[C@]1(O)CO)n1c3ccccc3c3c4c(c5c6ccccc6n2c5c31)CNC4=O [Lestaurtinib] (100 nM)	94	99.7	96.2	95.8	56.4	83.4	91.5	116	74.8	81.8	105	96.2	107	–	66.7	102	69.6	86.4
Nc1ccccc1NC(=O)c1ccc(CNc2nccc(-c3cccnc3)n2)cc1 [Mocetinostat] (1000 nM)	96	103	95.2	98.8	67	101	93	98.2	83.2	105	–	59.8	106	81.3	66.7	99.2	62.9	92.4
O=C(CCBr)N1CCN(C(=O)CCBr)CC1 [Pipobroman] (10000 nM)	100	98.9	91.5	96.9	101	77.6	96.9	–	97.4	105	104	128	88.8	83.1	101	96.5	134	–
CCC/C=C/C=C/C(=O)O[C@H]1/C(=C/C(=O)OC)C[C@H]2C[C@H]([C@@H](C)O)OC(=O)C[C@H](O)C[C@@H]3C[C@H](OC(C)=O)C(C)(C)[C@](O)(C[C@@H]4C/C(=C/C(=O)OC)C[C@H](/C=C/C(C)(C)[C@]1(O)O2)O4)O3 [Bryostatin 1] (100 nM)	93.1	122	99.8	105	104	64.6	112	53.9	118	–	73.7	114	103	120	–	104	150	104
Cc1nc(Nc2ncc(C(=O)Nc3c(C)cccc3Cl)s2)cc(N2CCN(CCO)CC2)n1 [Dasatinib] (1000 nM)	103	39.7	100	104	75.6	43.1	96.6	107	102	91.4	81.3	5.15	63	35	97	92.5	99.7	–
COc1cc(CCc2cc(NC(=O)c3ccc(N4CC(C)NC(C)C4)cc3)n[nH]2)cc(OC)c1 (stereo not drawn) [AZD4547] (1000 nM)	99.9	90	89.5	57.8	96.6	126	98.5	59.4	100	88.6	–	115	63.9	110	95.4	103	190	95.5
Nc1cccc2c1CN(C1CCC(=O)NC1=O)C2=O (stereo not drawn) [Lenalidomide] (1000 nM)	99.8	125	96.9	–	104	92.2	103	111	105	113	104	94.5	108	109	88.4	103	122	99.6
COc1nc(N)nc2c1ncn2[C@@H]1O[C@H](CO)[C@@H](O)[C@@H]1O [Nelarabine] (1000 nM)	96.4	128	89	87.2	99.3	108	94.7	–	90.3	100	78.7	107	98.8	106	88.7	104	102	89.8
CO[C@@H](C(=O)N1Cc2[nH]nc(NC(=O)c3ccc(N4CCN(C)CC4)cc3)c2C1)c1ccccc1 [Danusertib] (1000 nM)	102	112	94	45.1	57.8	97.5	97.3	66.9	104	129	105	–	110	101	–	84.9	51.4	92.9
Nc1cccc2c1CN(C1CCC(=O)NC1=O)C2=O (stereo not drawn) [Lenalidomide] (10000 nM)	102	117	97.7	–	102	90.7	100	119	103	97.7	98.5	127	91.8	108	95.5	99.8	138	80.3
CC[C@@]1(O)C(=O)OCc2c1cc1n(c2=O)Cc2cc3c(CN(C)C)c(O)ccc3nc2-1 [Topotecan] (1000 nM)	96.6	90.6	85	12	18.9	67.8	83.2	76.7	81.3	95.1	–	–	92.2	–	71	108	-478	90.7
CO[C@@H](C(=O)N1Cc2[nH]nc(NC(=O)c3ccc(N4CCN(C)CC4)cc3)c2C1)c1ccccc1 [Danusertib] (10000 nM)	91.6	53.1	28.7	90.5	22.9	67.3	102	127	106	–	48	-40.1	57.6	93.2	75.7	112	55.9	94.9
